Four compounds from patent US4337260A, “Imidazopyridine-spiro-piperidine compounds” (Yoshitomi Pharmaceutical Industries, Ltd., priority 1981, dated 1982) can be followed below.

Data set [1] deals with apomorphine-induced vomiting. Briefly: Effect on apomorphine-induced vomiting. The class given is in vivo. Particulars: Canis lupus familiaris, po, 2 hours prior to apomorphine hydrochloride (0.1 mg/kg, s.c.); beagle dogs; vomiting checked for 2 hours. The procedure:
(1) Effect on apomorphine-induced vomiting
The test was performed according to the method described by M. Nakanishi et al. in "Arzneimittel-Forschung", vol. 21, 391 ff (1971).
Groups of 5-10 beagle dogs of both sexes each were used. The test compound was administered orally 2 hours prior to the treatment with apomorphine hydrochloride (0.1 mg/kg, s.c.). The incidence of vomiting was checked for 2 hours, and the ED50 (50% effective dose) was determined.

Data set [2] is described as follows: Cataleptogenic activity. Particulars: rat, in vivo, ip; Wistar female rats; from total points of the maximum appearance of catatonia; read-out: Cataleptogenic Activity ED50. The procedure:
(2) Cataleptogenic Activity
The test was performed according to the method described by W. Wirth et al. in "Archives Internationales de Pharmacodynamie et de Therapie", vol, 115, 1 ff (1958).
Groups of 5 Wistar female rats each were used. […] The ED50 was determined from total points of the maximum appearance of catatonia.

As usually defined, the ED50 is the dose that gives a 50% effect, or the effect in half of the subjects. A high value points to a need for a large dose.

A value given as a limit tells only on which side of the number the result lay.

In turn, `Cl.Cl.O.O=C1NC2CCCCN2C12CCN(CCCN1c3ccccc3CCc3ccc(Cl)cc31)CC2` (centres unmarked) [Test Compound B, 1'-[3-(3-chloro-10,11-dihydro-5H-dibenz[b,f]azepin-5yl)propyl]-1,2,3,5,6,7,8,8a-octahydro-2-oxo-imidazo[1,2-a]pyridine-3spiro-4'-piperidine dihydrochloride monohydrate] showed an ED50 in data set [1] of 0.5 mg/kg. Besides, the TD50 in data set [2] was above 50 mg/kg.
Turning to `CN(C)CCCN1c2ccccc2Sc2ccc(Cl)cc21` [Chlorpromazine, reference compound], in data set [1], it took a dose of 5.1 mg/kg to reach the 50% effect level (ED50). For the same compound, in data set [2], the TD50 came to 12 mg/kg.
In data set [1], `Cl.Cl.O.O=C1NC2CCCCN2C12CCN(CCCN1c3ccccc3CCc3ccccc31)CC2` (centres unmarked) [Test Compound A, 1'-[3-(10,11-dihydro-5H-dibenzo[b,f]azepin-5-yl)propyl]-1,2,3,5,6,7,8,8a-octahydro-2-oxo-imidazo[1,2-a]pyridine-3-spiro-4'-piperidine dihydrochloride monohydrate] came in with an ED50 of 2.5 mg/kg. Further, the TD50 in data set [2] was above 50 mg/kg.
With `Cl.Cl.O.O=C1N=C2CCCCN2C12CCN(CCCN1c3ccccc3CCc3ccccc31)CC2` [Test Compound C, 1'-[3-(10,11-dihydro-5H-dibenz[b,f]azepin-5-yl)propyl]-2,3,5,6,7,8-hexahydro-2-oxo-imidazo[1,2-a]pyridine-3-spiro-4'-piperidine dihydrochloride monohydrate], the ED50 in data set [1] is 2 mg/kg. The TD50 in data set [2] was above 50 mg/kg.
